From patent US20210204568A1, “CBD-[…]” (THC PHARM GMBH THE HEALTH CONCEPT, priority 2014, published 2021) come the findings set out here.

The test deals with freely moving rats. In words: Electropharmacogram (EEG spectral power and physical activity) of freely moving rats after a CBD liquid formulation. In kind it is in vivo, rat. The procedure:
FIGS. 1 to 3 show electropharmacograms from electroencephalography (EEG) of adult rats (>3 months old), wherein a dosage of 1 mg/kg (body weight) (FIG. 1), 5 mg/kg (body weight (FIGS. 2), and 15 mg/kg (body weight) (FIG. 3) cannabidiol was administered in the form of a liquid formulation.
Under general anesthesia, four depth electrodes were implanted into the prefrontal cortex, the hippocampus, the striatum, and the reticular formation of the rats. From the head of the rats, signals are wirelessly transmitted by radio to a computer. At the same time, the physical activity is measured.
The signals are subjected to a frequency analysis, for example using the fast Fourier transform (FFT), and the frequency content of a signal is determined. In the case of EEG data, the spectrum is divided into multiple regions, which historically are denoted by delta, theta, alpha and beta.
After the division into seven frequency ranges ((1) to (7), see FIGS. 1-3), the changes in the electric output after administration of a liquid formulation according to the invention comprising cannabidiol can be quantified and, taking the signals of the four brain regions into consideration, a specific change pattern, referred to as the “electropharmacogram (supra)”, is obtained (Dimpfel W., Pharmacological classification of herbal extracts by means of comparison to spectral EEG signatures induced by synthetic drugs in the freely moving rat. Journal of Ethnopharmacology 2013, 149, 583-589).
Time-dependent progression of the electric output (“spectral power”) (ordinate) in percent from the 45-minute long pre-drug base line (values) in four brain regions of freely moving rats in the presence of a vehicle (4 ml/kg). The frequency ranges are depicted as bars on the abscissa, specifically delta (1), theta (2), alpha1 (3), alpha2 (4), beta1a (5), beta1b (6) and gamma spectral power (7) from left to right, depending on the named brain region, The statistical significance is represented in stars compared to the control group (vehicle): *=p<0.05; **=p<0.01.

Setting [1] is: dosage of 1 mg/kg to 5 mg/kg, adult rats.
[2] abbreviates: high dosages, 5 or 15 mg/kg (body weight).

`C=C(C)[C@@H]1CCC(C)=C[C@H]1c1c(O)cc(CCCCC)cc1O` [CBD, 2-[1R-3-methyl-6-(1-methylethenyl]--cyclohexen-1-yl]-5-pentyl-1,3-benzenediol]: under setting [1], the “duration for which the specific increase in gamma spectral power can be observed” value is given as “at least 4 hours” and the “gamma spectral power in the hippocampus” value was “not at all”. In addition, the “gamma spectral power within the striatum” value (dosage of 1 mg/kg to 5 mg/kg, adult rats, FIG. 1) is given as “increase”. Moreover, the gamma spectral power result (dosage of 15 mg/kg, adult rats, FIG. 3) is listed as “no specific increase”. Besides, under setting [2], the “EEG pattern or electropharmacogram compared with drug classes” value is “corresponds to that of certain antidepressants and analgesic drugs”; the activity index result is listed as “significant decrease”. In addition, the “effect according to the electropharmacogram” value (high dosages, 5 or 15 mg/kg (body weight), FIGS. 2 and 3) was “sedating effect”. Also, the “effect according to the electropharmacogram” value (lowest dosage, less than 5 mg/kg, preferably 1 mg/kg (body weight)) is “activating and invigorating effect”.
